Patent US20080069896A1, “Antitumor Composition” (Kabushiki Kaisha Sangi, priority 2004, published 2008)

Assays:
SiHa = experiment: MTT assay, human cancer cells SiHa; format: cell-based; details: for Platinum content calculated from IC50 of human cancer cells by MTT assay: IC50 converted to platinum concentration; for IC50 of human cancer cells by MTT assay: cervical cancer, HAP agents particle diameter 0.1 μm or less
Experimental: (§1) Effect of platinum tetrachloride/hydroxyapatite (PtCl4/HAP) and hexachloroplatinate/hydroxyapatite (H2PtCl6/HAP) against human cancer cells (MTT assay)
(§2) According to “in vitro toxicity test using MTT”, which is an ordinary test method, MTT assay was performed for PtCl4/HAP (particle diameter 0.1 μm or less), and H2PtCl6/HAP (particle diameter 0.1 μm or less) by using 19 types of human cancer cells. PtCl4/HAP and H2PtCl6/HAP were used by adjusting the final dispersion concentration to 1.0% in a dispersion liquid each containing 10% platinum as a theoretical value. For comparison, MTT assay was performed for PtCl4 and CDDP. PtCl4 was dissolved at an adequate dose, and then used after serial dilution with PBS (−). For CDDP, injection liquid from Malco was used.

HT1080 = experiment: MTT assay, human cancer cells HT1080; format: cell-based; details: for IC50 of human cancer cells by MTT assay: HT1080, fibrosarcoma, HAP agents particle diameter 0.1 μm or less; for Platinum content calculated from IC50 of human cancer cells by MTT assay: HT1080, IC50 converted to platinum concentration
Experimental: as §1, §2

KB = experiment: MTT assay, human cancer cells KB; format: cell-based; details: for Platinum content calculated from IC50 of human cancer cells by MTT assay: IC50 converted to platinum concentration; for IC50 of human cancer cells by MTT assay: oral cancer, HAP agents particle diameter 0.1 μm or less
Experimental: as §1, §2

YES1 = experiment: MTT assay, human cancer cells YES1; format: cell-based; details: for IC50 of human cancer cells by MTT assay: YES1, esophageal cancer, HAP agents particle diameter 0.1 μm or less; for Platinum content calculated from IC50 of human cancer cells by MTT assay: YES1, IC50 converted to platinum concentration
Experimental: as §1, §2

YES6 = experiment: MTT assay, human cancer cells YES6; format: cell-based; details: for IC50 of human cancer cells by MTT assay: YES6, esophageal cancer, HAP agents particle diameter 0.1 μm or less; for Platinum content calculated from IC50 of human cancer cells by MTT assay: YES6, IC50 converted to platinum concentration
Experimental: as §1, §2

AZ521 = experiment: MTT assay, human cancer cells AZ521; format: cell-based; details: for IC50 of human cancer cells by MTT assay: AZ521, gastric cancer, HAP agents particle diameter 0.1 μm or less; for Platinum content calculated from IC50 of human cancer cells by MTT assay: AZ521, IC50 converted to platinum concentration
Experimental: as §1, §2

SW837 = experiment: MTT assay, human cancer cells SW837; format: cell-based; details: for IC50 of human cancer cells by MTT assay: SW837, colon cancer, HAP agents particle diameter 0.1 μm or less; for Platinum content calculated from IC50 of human cancer cells by MTT assay: SW837, IC50 converted to platinum concentration
Experimental: as §1, §2

HepG2 = experiment: MTT assay, human cancer cells HepG2; format: cell-based; details: for IC50 of human cancer cells by MTT assay: HepG2, liver cancer, HAP agents particle diameter 0.1 μm or less; for Platinum content calculated from IC50 of human cancer cells by MTT assay: HepG2, IC50 converted to platinum concentration
Experimental: as §1, §2

[1] = test system: fibroblasts at confluency; experiment: Microscopic observation of toxicity effect during resting stage; format: cell-based, rat; details: amount corresponding to 2 ppm of platinum content, fibroblasts at confluency, cultured for 48 hours
From the text: A male mature rat was deeply anesthetized with ether, and disinfected by wiping carefully its tail with alcohol. The tail end part was cut by several centimeters, and the skin was removed from coccyx. Tendon was attached to the coccyx, and by culturing the same, fibroblasts can be recovered. Coccyx part was further cut finely with a sterilized pair of scissors, and adhered on a sterilized plastic plate with the cut surface down. After resting the plate for a while, DMEM supplemented with 10% FBS was added thereto. In approximately one week, fibroblasts germinated from the coccyx part, and proliferated in the plate. The fibroblasts collected from rat tail end were used for the following experiment.
From the result of Example 7, 2 ppm which is a value of platinum content that kills 50% of fibroblasts in CDDP during resting stage was set as a standard. Then, CDDP, PtCl4/HAP, PtCl4 and HAP dispersion liquids in an amount corresponding to 2 ppm of platinum content, were added to the fibroblasts at confluency in a medium, and cultured for 48 hours.

Row | Compound | Platinum content calculated from IC50 of human cancer cells by MTT assay (SiHa) [ppm] | IC50 of human cancer cells by MTT assay (SiHa) [ppm] | IC50 of human cancer cells by MTT assay (HT1080) [ppm] | Platinum content calculated from IC50 of human cancer cells by MTT assay (HT1080) [ppm] | Platinum content calculated from IC50 of human cancer cells by MTT assay (KB) [ppm] | IC50 of human cancer cells by MTT assay (KB) [ppm] | IC50 of human cancer cells by MTT assay (YES1) [ppm] | Platinum content calculated from IC50 of human cancer cells by MTT assay (YES1) [ppm] | IC50 of human cancer cells by MTT assay (YES6) [ppm] | Platinum content calculated from IC50 of human cancer cells by MTT assay (YES6) [ppm] | IC50 of human cancer cells by MTT assay (AZ521) [ppm] | Platinum content calculated from IC50 of human cancer cells by MTT assay (AZ521) [ppm] | IC50 of human cancer cells by MTT assay (SW837) [ppm] | Platinum content calculated from IC50 of human cancer cells by MTT assay (SW837) [ppm] | IC50 of human cancer cells by MTT assay (HepG2) [ppm] | Platinum content calculated from IC50 of human cancer cells by MTT assay (HepG2) [ppm] | Microscopic observation of cell form of cultured fibroblasts [1]
1 | [Cl][Pt]([Cl])([Cl])[Cl] [PtCl4, platinum tetrachloride] | 5.0 | 8.7 | 9.6 | 5.6 | 8.7 | 15.0 | 19.2 | 11.1 | 11.9 | 6.9 | 14.6 | 8.4 | 32.9 | 19.1 | 6.2 | 6.2 | many cells wherein spindle form was deformed, or having a round form, were observed
2 | [NH2][Pt]([NH2])([Cl])[Cl] [CDDP, cisplatin] | 9.8 | 15.1 | 25.5 | 16.6 | 4.1 | 6.3 | 8.2 | 5.4 | 0.8 | 0.5 | 1.0 | 0.7 | 40.2 | 26.1 | 5.0 | 5.0 | most of the cells had a round form
